Measurements: ChEMBL document CHEMBL2406977, “The discovery of PLK4 inhibitors: (E)-3-((1H-Indazol-6-yl)methylene)indolin-2-ones as novel antiproliferative agents” (J Med Chem, 2013)

Key:
[1] = molecular target: T1, Serine/threonine-protein kinase PLK4 (Homo sapiens, UniProt O00444); experiment: Inhibition of human PLK4
T1 sequence (O00444 whole entry): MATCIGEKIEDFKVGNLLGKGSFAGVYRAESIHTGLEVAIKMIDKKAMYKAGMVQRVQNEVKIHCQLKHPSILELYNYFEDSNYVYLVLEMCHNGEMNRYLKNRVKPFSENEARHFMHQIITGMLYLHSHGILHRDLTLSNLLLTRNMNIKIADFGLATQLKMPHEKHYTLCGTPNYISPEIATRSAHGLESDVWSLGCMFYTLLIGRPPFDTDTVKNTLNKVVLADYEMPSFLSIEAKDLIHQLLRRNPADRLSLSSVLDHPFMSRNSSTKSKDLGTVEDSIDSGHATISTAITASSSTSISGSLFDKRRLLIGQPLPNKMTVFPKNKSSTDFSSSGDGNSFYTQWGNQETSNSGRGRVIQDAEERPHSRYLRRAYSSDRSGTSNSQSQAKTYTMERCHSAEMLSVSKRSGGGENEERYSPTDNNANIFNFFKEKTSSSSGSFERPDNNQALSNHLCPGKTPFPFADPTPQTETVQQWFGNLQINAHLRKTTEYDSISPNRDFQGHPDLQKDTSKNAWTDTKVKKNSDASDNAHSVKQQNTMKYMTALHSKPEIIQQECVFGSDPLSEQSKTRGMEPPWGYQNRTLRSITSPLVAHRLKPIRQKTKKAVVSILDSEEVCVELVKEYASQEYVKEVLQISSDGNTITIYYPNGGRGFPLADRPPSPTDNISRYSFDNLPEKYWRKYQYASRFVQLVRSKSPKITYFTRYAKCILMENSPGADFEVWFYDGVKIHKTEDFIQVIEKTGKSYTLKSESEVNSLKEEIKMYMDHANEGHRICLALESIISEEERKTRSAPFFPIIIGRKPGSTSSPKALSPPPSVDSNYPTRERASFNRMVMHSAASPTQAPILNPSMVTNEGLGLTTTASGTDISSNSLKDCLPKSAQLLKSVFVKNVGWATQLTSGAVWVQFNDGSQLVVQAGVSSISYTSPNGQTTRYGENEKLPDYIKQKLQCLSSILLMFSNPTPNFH

[2] = Permeability of the compound at pH 7.4 by PAMPA; assay type: ADME; conditions: read-out: permeability
Cytochrome P450 2C9 = Cytochrome P450 2C9 (Homo sapiens, UniProt P11712); experiment: Inhibition of CYP2C9 (unknown origin) using MFC as substrate after 45 mins by fluorescence assay; assay type: ADME
Cytochrome P450 2C19 = Cytochrome P450 2C19 (Homo sapiens, UniProt P33261); experiment: Inhibition of CYP2C19 (unknown origin) using MFC as substrate after 30 mins by fluorescence assay; assay type: ADME
Cytochrome P450 1A2 = molecular target: T2, Cytochrome P450 1A2 (Homo sapiens, UniProt P05177); experiment: Inhibition of CYP1A2 (unknown origin) using CEC as substrate after 15 mins by fluorescence assay; assay type: ADME
T2 sequence (P05177 whole entry): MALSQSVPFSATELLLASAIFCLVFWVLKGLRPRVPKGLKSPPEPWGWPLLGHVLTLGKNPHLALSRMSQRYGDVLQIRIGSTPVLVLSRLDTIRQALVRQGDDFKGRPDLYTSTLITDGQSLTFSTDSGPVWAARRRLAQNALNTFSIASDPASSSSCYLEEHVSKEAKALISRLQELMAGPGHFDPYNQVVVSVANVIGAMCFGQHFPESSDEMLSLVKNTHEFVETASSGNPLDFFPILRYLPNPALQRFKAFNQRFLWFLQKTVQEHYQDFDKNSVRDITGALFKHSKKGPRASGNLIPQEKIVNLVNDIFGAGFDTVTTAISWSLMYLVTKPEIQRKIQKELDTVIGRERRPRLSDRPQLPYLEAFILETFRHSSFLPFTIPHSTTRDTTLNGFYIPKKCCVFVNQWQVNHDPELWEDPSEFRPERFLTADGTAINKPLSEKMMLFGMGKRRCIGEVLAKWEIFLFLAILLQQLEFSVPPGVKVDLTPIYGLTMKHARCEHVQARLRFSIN

Cytochrome P450 2D6 = Cytochrome P450 2D6 (Homo sapiens, UniProt P10635); experiment: Inhibition of CYP2D6 (unknown origin) using AMMC as substrate after 30 mins by fluorescence assay; assay type: ADME
Cytochrome P450 3A4 = Cytochrome P450 3A4 (Homo sapiens, UniProt P08684); experiment: Inhibition of CYP3A4 (unknown origin) after 10 mins by fluorescence assay; assay type: ADME
MDA-MB-468 [3] = experiment: Cell cycle arrest in human MDA-MB-468 cells assessed as accumulation of 16N peaks at 1 uM after 2 days by FACS analysis; assay type: functional
MDA-MB-468 [4] = experiment: Cell cycle arrest in human MDA-MB-468 cells assessed as accumulation of 8N peaks at 1 uM after 2 days by FACS analysis; assay type: functional
MDA-MB-468 [5] = experiment: Cell cycle arrest in human MDA-MB-468 cells assessed as accumulation at G1 phase at 1 uM after 2 days by FACS analysis; assay type: functional
MDA-MB-468 [6] = experiment: Cell cycle arrest in human MDA-MB-468 cells assessed as accumulation of 16N peaks at 0.25 uM after 2 days by FACS analysis; assay type: functional
MDA-MB-468 [7] = experiment: Cell cycle arrest in human MDA-MB-468 cells assessed as accumulation at G1 phase at 0.25 uM after 2 days by FACS analysis; assay type: functional
MDA-MB-468 [8] = experiment: Cell cycle arrest in human MDA-MB-468 cells assessed as accumulation of 8N peaks at 0.25 uM after 2 days by FACS analysis; assay type: functional
MDA-MB-468 [9] = experiment: Cell cycle arrest in human MDA-MB-468 cells assessed as accumulation of 16N peaks at 0.5 uM after 2 days by FACS analysis; assay type: functional
MDA-MB-468 [10] = experiment: Cell cycle arrest in human MDA-MB-468 cells assessed as accumulation of 8N peaks at 0.5 uM after 2 days by FACS analysis; assay type: functional
MDA-MB-468 [11] = experiment: Cell cycle arrest in human MDA-MB-468 cells assessed as accumulation at G1 phase at 0.5 uM after 2 days by FACS analysis; assay type: functional
HCC1954 = experiment: Antiproliferative activity against human HCC1954 cells assessed as growth inhibition after 5 days by SRB assay; assay type: functional; conditions: HCC1954, 120 h
MDA-MB-231 = experiment: Antiproliferative activity against human MDA-MB-231 cells assessed as growth inhibition after 5 days by SRB assay; assay type: functional; conditions: MDA-MB-231, 120 h
SK-BR-3 = experiment: Antiproliferative activity against human SKBR3 cells assessed as growth inhibition after 5 days by SRB assay; assay type: functional; conditions: SK-BR-3, 120 h
MDA-MB-468 [12] = experiment: Antiproliferative activity against human MDA-MB-468 cells assessed as growth inhibition after 5 days by SRB assay; assay type: functional; conditions: MDA-MB-468, 120 h
MCF7 = experiment: Antiproliferative activity against human MCF7 cells assessed as growth inhibition after 5 days by SRB assay; assay type: functional; conditions: MCF7, 120 h
[13] = molecular target: Serine/threonine-protein kinase PLK3 (Homo sapiens, UniProt Q9H4B4); experiment: Inhibition of PLK3 (unknown origin) by FRET-based homogeneous assay
[14] = molecular target: Serine/threonine-protein kinase PLK1 (Homo sapiens, UniProt P53350); experiment: Inhibition of PLK1 (unknown origin) by FRET-based homogeneous assay
[15] = molecular target: Serine/threonine-protein kinase PLK2 (Homo sapiens, UniProt Q9NYY3); experiment: Inhibition of PLK2 (unknown origin) by FRET-based homogeneous assay
[16] = molecular target: T1, Serine/threonine-protein kinase PLK4; experiment: Inhibition of N-terminal GST-tagged human PLK4 (1 to 391 amino acids) expressed in Escherichia coli using TMB as substrate after 30 mins by indirect ELISA assay

Serine/threonine-protein kinase PLK3, sequence (Q9H4B4 whole entry): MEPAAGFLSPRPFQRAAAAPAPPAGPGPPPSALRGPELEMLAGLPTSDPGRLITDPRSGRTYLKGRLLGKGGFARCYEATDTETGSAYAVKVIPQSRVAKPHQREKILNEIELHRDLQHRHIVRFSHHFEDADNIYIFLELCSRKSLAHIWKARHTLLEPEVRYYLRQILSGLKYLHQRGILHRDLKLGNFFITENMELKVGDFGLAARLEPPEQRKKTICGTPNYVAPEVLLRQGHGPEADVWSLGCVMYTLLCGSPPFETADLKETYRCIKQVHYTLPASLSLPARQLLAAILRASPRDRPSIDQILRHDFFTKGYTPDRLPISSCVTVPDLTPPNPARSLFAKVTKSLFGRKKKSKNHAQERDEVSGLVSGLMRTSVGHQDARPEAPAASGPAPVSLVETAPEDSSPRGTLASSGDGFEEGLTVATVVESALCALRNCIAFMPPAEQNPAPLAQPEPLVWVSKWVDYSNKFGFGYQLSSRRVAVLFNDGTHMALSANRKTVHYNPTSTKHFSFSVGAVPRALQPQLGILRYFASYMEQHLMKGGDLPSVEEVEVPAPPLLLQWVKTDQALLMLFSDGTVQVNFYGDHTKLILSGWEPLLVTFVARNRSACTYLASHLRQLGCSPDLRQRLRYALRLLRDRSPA
Cytochrome P450 2C9, sequence (P11712 whole entry): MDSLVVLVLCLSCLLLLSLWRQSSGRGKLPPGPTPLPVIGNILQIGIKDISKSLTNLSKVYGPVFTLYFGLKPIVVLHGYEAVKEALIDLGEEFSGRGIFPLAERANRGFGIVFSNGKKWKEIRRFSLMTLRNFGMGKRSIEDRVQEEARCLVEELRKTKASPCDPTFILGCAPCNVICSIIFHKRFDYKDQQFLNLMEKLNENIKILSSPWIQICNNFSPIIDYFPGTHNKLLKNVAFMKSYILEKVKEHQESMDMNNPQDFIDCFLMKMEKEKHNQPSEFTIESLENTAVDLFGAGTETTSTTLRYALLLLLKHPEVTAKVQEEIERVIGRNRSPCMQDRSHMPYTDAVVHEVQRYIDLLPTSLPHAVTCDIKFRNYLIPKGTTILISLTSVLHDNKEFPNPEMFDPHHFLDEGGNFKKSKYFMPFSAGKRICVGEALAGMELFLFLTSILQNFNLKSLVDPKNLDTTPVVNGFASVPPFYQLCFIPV
Cytochrome P450 3A4, sequence (P08684 whole entry): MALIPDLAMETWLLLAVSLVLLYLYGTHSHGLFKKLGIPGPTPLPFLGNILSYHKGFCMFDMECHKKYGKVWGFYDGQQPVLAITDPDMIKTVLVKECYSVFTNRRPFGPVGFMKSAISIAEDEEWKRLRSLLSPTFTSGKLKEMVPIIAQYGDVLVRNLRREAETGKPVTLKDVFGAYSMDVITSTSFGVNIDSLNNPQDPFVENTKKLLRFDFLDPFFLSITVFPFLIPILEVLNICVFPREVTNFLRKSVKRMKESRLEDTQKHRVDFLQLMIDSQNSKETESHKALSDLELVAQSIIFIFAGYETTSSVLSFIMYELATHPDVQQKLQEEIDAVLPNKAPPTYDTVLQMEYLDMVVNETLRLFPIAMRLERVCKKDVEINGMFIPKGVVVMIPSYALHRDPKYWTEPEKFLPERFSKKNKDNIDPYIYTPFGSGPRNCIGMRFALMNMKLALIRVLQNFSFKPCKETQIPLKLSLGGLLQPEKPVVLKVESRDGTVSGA
Serine/threonine-protein kinase PLK1, sequence (P53350 whole entry): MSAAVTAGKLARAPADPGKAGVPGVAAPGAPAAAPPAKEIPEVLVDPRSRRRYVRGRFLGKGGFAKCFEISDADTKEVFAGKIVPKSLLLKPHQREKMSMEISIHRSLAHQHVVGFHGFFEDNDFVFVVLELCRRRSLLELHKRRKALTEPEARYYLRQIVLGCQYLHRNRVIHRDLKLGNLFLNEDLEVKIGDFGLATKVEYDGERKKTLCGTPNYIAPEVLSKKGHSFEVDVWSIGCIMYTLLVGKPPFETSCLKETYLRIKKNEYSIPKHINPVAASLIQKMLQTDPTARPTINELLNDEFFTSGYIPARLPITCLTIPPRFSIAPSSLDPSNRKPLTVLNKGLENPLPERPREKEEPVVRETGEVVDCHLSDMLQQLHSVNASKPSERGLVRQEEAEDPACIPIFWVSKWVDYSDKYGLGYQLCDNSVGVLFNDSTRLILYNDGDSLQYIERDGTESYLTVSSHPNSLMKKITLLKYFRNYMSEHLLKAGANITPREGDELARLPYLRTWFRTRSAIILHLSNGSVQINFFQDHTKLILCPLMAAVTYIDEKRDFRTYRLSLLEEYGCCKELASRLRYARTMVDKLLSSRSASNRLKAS
Serine/threonine-protein kinase PLK2, sequence (Q9NYY3 whole entry, the tested form may be a part): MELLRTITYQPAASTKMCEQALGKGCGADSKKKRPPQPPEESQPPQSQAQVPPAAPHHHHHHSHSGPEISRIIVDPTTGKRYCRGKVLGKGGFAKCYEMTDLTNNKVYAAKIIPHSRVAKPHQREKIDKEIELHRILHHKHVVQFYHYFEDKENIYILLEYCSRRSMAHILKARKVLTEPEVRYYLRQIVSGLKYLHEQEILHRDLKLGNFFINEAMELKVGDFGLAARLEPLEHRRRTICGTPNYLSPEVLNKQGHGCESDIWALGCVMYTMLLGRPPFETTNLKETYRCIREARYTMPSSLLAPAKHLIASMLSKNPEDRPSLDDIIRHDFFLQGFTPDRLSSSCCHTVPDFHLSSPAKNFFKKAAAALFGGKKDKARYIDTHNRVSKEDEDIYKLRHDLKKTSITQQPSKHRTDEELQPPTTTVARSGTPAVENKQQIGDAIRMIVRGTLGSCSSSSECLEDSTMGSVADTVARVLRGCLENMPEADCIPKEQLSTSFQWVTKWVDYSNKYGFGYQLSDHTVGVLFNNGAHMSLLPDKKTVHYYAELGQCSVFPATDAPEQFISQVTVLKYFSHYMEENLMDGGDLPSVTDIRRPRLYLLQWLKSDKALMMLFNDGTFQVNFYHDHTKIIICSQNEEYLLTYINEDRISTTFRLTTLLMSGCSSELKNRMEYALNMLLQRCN
Cytochrome P450 2D6, sequence (P10635 whole entry): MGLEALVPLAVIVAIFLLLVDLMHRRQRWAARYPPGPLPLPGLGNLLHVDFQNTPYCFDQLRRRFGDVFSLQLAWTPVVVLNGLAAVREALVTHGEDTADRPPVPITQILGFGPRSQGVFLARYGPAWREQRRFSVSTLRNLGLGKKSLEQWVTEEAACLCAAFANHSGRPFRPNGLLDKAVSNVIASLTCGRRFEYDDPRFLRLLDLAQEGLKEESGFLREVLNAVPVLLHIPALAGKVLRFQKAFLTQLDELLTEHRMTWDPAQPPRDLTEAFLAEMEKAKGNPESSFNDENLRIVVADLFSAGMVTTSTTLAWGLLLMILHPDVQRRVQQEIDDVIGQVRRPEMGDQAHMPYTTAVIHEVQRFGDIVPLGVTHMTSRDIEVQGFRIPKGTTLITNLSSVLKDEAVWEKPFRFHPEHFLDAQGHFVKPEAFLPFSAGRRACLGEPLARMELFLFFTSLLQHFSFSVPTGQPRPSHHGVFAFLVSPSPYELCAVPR
Cytochrome P450 2C19, sequence (P33261 whole entry): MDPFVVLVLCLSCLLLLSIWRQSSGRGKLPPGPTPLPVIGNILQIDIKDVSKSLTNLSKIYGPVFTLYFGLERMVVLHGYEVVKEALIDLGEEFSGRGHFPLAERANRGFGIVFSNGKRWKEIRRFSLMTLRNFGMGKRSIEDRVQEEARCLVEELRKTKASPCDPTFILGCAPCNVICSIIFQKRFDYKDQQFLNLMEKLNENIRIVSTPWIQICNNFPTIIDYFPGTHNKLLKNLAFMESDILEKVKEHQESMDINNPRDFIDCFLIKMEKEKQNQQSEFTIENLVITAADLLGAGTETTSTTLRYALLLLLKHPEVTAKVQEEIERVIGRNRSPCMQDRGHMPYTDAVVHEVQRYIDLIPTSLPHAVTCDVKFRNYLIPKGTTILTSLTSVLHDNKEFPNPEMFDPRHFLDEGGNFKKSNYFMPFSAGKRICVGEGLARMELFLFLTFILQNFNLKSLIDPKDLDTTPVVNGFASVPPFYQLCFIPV

Papp [2] [×10⁻⁶ cm/s]	IC50 (Cytochrome P450 2C9) [nM]	IC50 (Cytochrome P450 2C19) [nM]	IC50 (Cytochrome P450 1A2) [nM]	IC50 (Cytochrome P450 2D6) [nM]	IC50 (Cytochrome P450 3A4) [nM]	GI50 (HCC1954) [nM]	GI50 (MDA-MB-231) [nM]	GI50 (SK-BR-3) [nM]	GI50 (MDA-MB-468 [12]) [nM]	GI50 (MCF7) [nM]	IC50 [13] [nM]	IC50 [14] [nM]	IC50 [15] [nM]	IC50 [16] [nM]	Structure (SMILES)	Ki [1] [nM]	further results
–	–	–	–	–	–	–	–	–	–	–	–	–	–	–	COc1cc2c(cc1F)C(c1ccccc1Cl)=Nc1c(n[nH]c1C)N2 [RG-1530]	11	–
197	20	130	> 10000	> 10000	2700	930	19000	25000	310	160	> 10000	> 10000	> 10000	5.4	O=C1Nc2ccccc2/C1=C\c1ccc2c(/C=C/c3ccncc3)n[nH]c2c1	–	Activity (MDA-MB-468 [3]): 5.2%; Activity (MDA-MB-468 [4]): 32.5%; Activity (MDA-MB-468 [5]): 24.8%; Activity (MDA-MB-468 [6]): 1.7%; Activity (MDA-MB-468 [7]): 11.2%; Activity (MDA-MB-468 [8]): 11.85%; Activity (MDA-MB-468 [9]): 6%; Activity (MDA-MB-468 [10]): 34.3%; Activity (MDA-MB-468 [11]): 20.8%
335	900	440	10000	10000	800	370	< 10	1100	20	20	> 10000	> 10000	> 10000	1.4	CN1CCN(c2ccc(/C=C/c3n[nH]c4cc(/C=C5/C(=O)Nc6ccccc65)ccc34)cn2)CC1	–	–
–	–	–	–	–	–	–	–	–	–	–	–	–	–	–	COCCOc1ccc2cc1OCC(=O)N(C)CCCN(C)Cc1c[nH]c3ncnc(c13)N2	25	–
